Like-named read-outs stand apart in the source and are kept apart here.
Legend:
xenograft = test system: xenograft; design: method as in ref 8 = [8]; Chen P Iruela-Arispe L Lou L Sun P Yuan K VEGFr inhibitor YN968D1 xenograft dose response studies against human colon cancer Ls174t and HT29 Proc Amer Assoc Cancer Res 2006 47 abst 1764; details: xenograft study; cited from earlier work
advanced solid tumors = test: Tumor response by RECIST; assay type: in vivo, human
Description: Patients with measurable disease at baseline were evaluated for tumor response according to the Response Evaluation Criteria for Solid Tumors (RECIST). Radiographic studies (CT scan or MRI) for disease assessment were conducted at baseline and every 2 cycles (8 weeks) thereafter. The best overall response was reported. Disease control rate was defined as the percentage of patients with complete response (CR), partial response (PR), and stable disease (SD) for at least 8 weeks. The duration of overall response was defined as the period from the initial measurement of complete response (CR) or partial response (PR), whichever occurred first, to the first date of documented disease recurrence or progression. The same method and techniques of assessment were used to characterize each identified and reported lesion at baseline and at subsequent evaluations.

dogs = details: previously established; cited from earlier work
[1] = Plasma pharmacokinetics after single and multiple oral doses (LC-MS/MS, non-compartmental analysis); assay type: in vivo, human; details: for Cmax / half-life / AUC(0-t) / Tmax: human, plasma; for AUC(0-t): read-out: AUC0-24, geometric mean; for Tmax: read-out: tmax, median
Description: The phase I study was designed in accordance with the Chinese State Food and Drug Administration (SFDA) recommendations (Guidance for Industry, 2005). PK evaluations were to be performed for single-dosing and multiple-dosing of which the dose levels were determined after completion of dose-escalation. Three dose levels (low, intermediate and high dose) for single-dosing and one dose level (the recommended dose for phase II) for multiple-dosing study, between 8 to 12 participants for each dose levels, were required to meet the SFDA guidance. A cross-over design to evaluate the effects of food intake was incorporated into the single-dosing assessment, also meeting the SFDA requirement, but data will be presented separately. […] Whole blood samples (1 ml) were collected at 0 (predose), 0.5, 1, 2, 3, 4, 6, 8, 12, 24, 32, and 48 hours for single-dosing evaluation and 0, 0.5, 1, 2, 3, 4, 6, 8, 12, and 24 hours (before the next dose) on days 1, 6, 28, and 56 for multiple-dosing evaluation. After the last dose on day 56, two additional samples were collected at 32 and 48 hours for multiple-dosing assessment. Plasma was collected from the blood samples following centrifugation, and stored at -80°C until analysis. […] The PK parameters, including area under the plasma concentration-time curve (AUC), maximum plasma concentration (Cmax), time to maximum concentration (tmax), and elimination half-life (t1/2) were determined by non-compartmental analysis using InnaPhase Kinetica 2000™ (InnaPhase Corp., Philadelphia, PA, USA). The linear-logarithmic trapezoidal method was used to calculate the AUC, and t1/2 λz was calculated by linear regression of the terminal slope of the logarithmic plasma concentration-time profile.

[2] = po, 500 mg, single oral dose 500 mg, n = 8
[3] = po, 750 mg, multiple oral dose of 750 mg, Day 1, n = 11
[4] = po, 750 mg, multiple oral dose of 750 mg, Day 6, n = 11
[5] = po, 750 mg, multiple oral dose of 750 mg, Day 28, n = 11
[6] = po, 750 mg, multiple oral dose of 750 mg, Day 56, n = 11
[7] = po, 750 mg, single oral dose 750 mg, n = 12
[8] = po, 850 mg, single oral dose 850 mg, n = 8

## N#CC1(c2ccc(NC(=O)c3cccnc3NCc3ccncc3)cc2)CCCC1 [apatinib]
xenograft
  in vivo efficacy compared to valatinib: superior in vivo efficacy
Advanced solid tumors; 250 mg cohort
  CR, evaluable patients: 0
  Disease control (%) CR+PR+SD: 66.7%
  Disease control CR+PR+SD, patients: 2
  PD, evaluable patients: 1
  PR, evaluable patients: 1
Advanced solid tumors; 500 mg cohort
  CR, evaluable patients: 0
  Disease control (%) CR+PR+SD: 66.7%
  Disease control CR+PR+SD, patients: 6
  PD, evaluable patients: 3
  PR, evaluable patients: 2
Advanced solid tumors; 750 mg cohort
  CR, evaluable patients: 0
  Disease control (%) CR+PR+SD: 100%
  Disease control CR+PR+SD, patients: 11
  PD, evaluable patients: 0
  PR, evaluable patients: 2
Advanced solid tumors; 850 mg cohort
  CR, evaluable patients: 0
  Disease control (%) CR+PR+SD: 90.9%
  Disease control CR+PR+SD, patients: 10
  PD, evaluable patients: 1
  PR, evaluable patients: 2
Advanced solid tumors; 1000 mg cohort
  CR, evaluable patients: 0
  Disease control (%) CR+PR+SD: 66.7%
  Disease control CR+PR+SD, patients: 2
  PD, evaluable patients: 1
  PR, evaluable patients: 0
Advanced solid tumors; 22 assessable patients with gastric and colorectal cancer
  patients who achieved PR: 4
Advanced solid tumors; 22 assessable patients with gastric and colorectal cancer (n = 18)
  Disease control rate: 81%
Advanced solid tumors; Total, n = 37
  CR, evaluable patients: 0
  Disease control CR+PR+SD, patients: 31
  PD, evaluable patients: 6
Advanced solid tumors; Total, n = 37, at 8 weeks
  Disease control (%) CR+PR+SD, disease control rate: 83.8%
Advanced solid tumors; one GIST patient who failed imatinib
  Duration of PR: 24 months
Advanced solid tumors; thirty-seven evaluable patients
  PR, % of evaluable patients: 18.9%
dogs
  maximum-tolerated dose (MTD) in dogs: above 30 mg/kg
[1]; 750 mg once daily, multiple dosing
  time to steady-state conditions: ≤ 6 days
[1]; oral, 750 mg, after a single dose of 750 mg, read-out: Cmax values, variation between patients
  Cmax: 926 to 4620 ng/mL
[1]; oral, constant over the dose levels 500-850 mg, read-out: elimination half-life of the terminal phase (t1/2 λz) (converted)
  half-life: 9 h
[1]; [2]
  AUC(0-t): 11300 ng·h/mL
  Tmax: 3.5 h
[1]; po, 500 mg, single oral dose 500 mg, n = 8, read-out: Cmax, geometric mean
  Cmax: 1520 ng/mL
[1]; po, 500 mg, single oral dose 500 mg, n = 8, read-out: t1/2λz, mean (converted)
  half-life: 8.1 h
[1]; [3]
  AUC(0-t): 19400 ng·h/mL
  Tmax: 3 h
[1]; po, 750 mg, multiple oral dose of 750 mg, Day 1, n = 11, read-out: Cmax, geometric mean
  Cmax: 2420 ng/mL
[1]; po, 750 mg, multiple oral dose of 750 mg, Day 1, n = 11, read-out: t1/2λz, mean (converted)
  half-life: 8.9 h
[1]; [4]
  AUC(0-t): 25400 ng·h/mL
  Tmax: 4 h
[1]; po, 750 mg, multiple oral dose of 750 mg, Day 6, n = 11, read-out: Cmax, geometric mean
  Cmax: 2550 ng/mL
[1]; po, 750 mg, multiple oral dose of 750 mg, Day 6, n = 11, read-out: t1/2λz, mean (converted)
  half-life: 11 h
[1]; [5]
  AUC(0-t): 19900 ng·h/mL
  Tmax: 4 h
[1]; po, 750 mg, multiple oral dose of 750 mg, Day 28, n = 11, read-out: Cmax, geometric mean
  Cmax: 2210 ng/mL
[1]; po, 750 mg, multiple oral dose of 750 mg, Day 28, n = 11, read-out: t1/2λz, mean (converted)
  half-life: 11.3 h
[1]; [6]
  AUC(0-t): 15600 ng·h/mL
  Tmax: 3 h
[1]; po, 750 mg, multiple oral dose of 750 mg, Day 56, n = 11, read-out: Cmax, geometric mean
  Cmax: 1850 ng/mL
[1]; po, 750 mg, multiple oral dose of 750 mg, Day 56, n = 11, read-out: t1/2λz, mean (converted)
  half-life: 8.3 h
[1]; [7]
  AUC(0-t): 18200 ng·h/mL
  Tmax: 3 h
[1]; po, 750 mg, single oral dose 750 mg, n = 12, read-out: Cmax, geometric mean
  Cmax: 2380 ng/mL
[1]; po, 750 mg, single oral dose 750 mg, n = 12, read-out: t1/2λz, mean (converted)
  half-life: 9 h
[1]; [8]
  AUC(0-t): 22000 ng·h/mL
  Tmax: 4 h
[1]; po, 850 mg, single oral dose 850 mg, n = 8, read-out: Cmax, geometric mean
  Cmax: 2830 ng/mL
[1]; po, 850 mg, single oral dose 850 mg, n = 8, read-out: t1/2λz, mean (converted)
  half-life: 9.1 h

— publication PMC2984425, “Safety and pharmacokinetics of novel selective vascular endothelial growth factor receptor-2 inhibitor YN968D1 in patients with advanced malignancies” (BMC Cancer, 2010)
